The source of these data is patent publication US20080221132A1, “Multi-Functional Small Molecules as Anti-Proliferative Agents” (priority 2006, published 2008).

One may read the IC50 as the concentration needed to halve the response being measured.

Where two headings read alike, the source gives them in different places.

One experiment concerns the target C-Raf (Homo sapiens, UniProt P04049, Y340D/Y341D). As to the kind of experiment: Raf kinase assay (Upstate kit, MEK-1 substrate, dot blot), C-Raf. It counts as biochemical. The following applies: TABLE 6-B (Section 6 compounds). As to the method: The Raf kinase assay was performed by following the protocol of Raf kinase assay kit (B-Raf, Upstate, catalog#17-359; C-Raf, Upstate, catalog#17-360) with modifications. Briefly, assay buffer, ATP, substrate and Raf kinase were mixed in a 96 well assay plate. The final kinase assay mixture contained 20 mM MOPS, pH7.2, 25 mM β-glycerol phosphate, 5 mM EGTA, 1 mM sodium orthovanadate, 1 mM DTT, 250 μM ATP and 37.5 mM magnesium chloride, 0.1 μg/well of Raf kinase, and 1 μg/well of MEK-1 substrate protein. Assay samples were incubated for 30 min at room temperature. The kinase reaction was stopped by adding EDTA, pH8 to a final concentration of 25 mM. A 10 μl of the reaction sample was spotted onto nitrocellulose filter and dot blot was performed by adding 1 μg/ml of anti-phospho-MEK-1 antibody in the blocking solution (Licor Bioscience, catalogue #927-40000). The nitrocellulose filter was subsequently incubated with secondary IRDye 800CW goat anti-rabbit antibody (Licor Bioscience, catalogue #926-32211) before reading the signal on an Odyssey imager (Licor Bioscience).

For a further experiment, the system named is Lung_H1703. Kind of experiment: Cell proliferation assay (ATPlite), H1703. It counts as cell-based. The following applies: Homo sapiens, NCI-H1703; TABLE C; 72 hours, 0.5% fetal bovine serum, ATP content; read-out: IC50 grading, Lung_H1703. As for the experimental part:
(§1) A representative number of compounds were assayed against several different cell lines using the cell proliferation assay:
(§2) Cell Proliferation Assay:
(§3) Cancer cell lines were plated at 5,000 to 10,000 per well in 96-well flatted bottomed plates with various concentration of compounds. The cells were incubated with compounds for 72 hours in the presence of 0.5% of fetal bovine serum. Growth inhibition was accessed by adenosine triphosphate (ATP) content assay using Perkin Elmer ATPlite kit. ATPlite is an ATP monitoring system based on firefly luciferase. Briefly, 25 μl of mammalian cell lysis solution was added to 50 μl of phenol red-free culture medium per well to lyse the cells and stabilize the ATP. 25 μl of substrate solution was then added to the well and subsequently the luminescence was measured.
(In ATP-based viability assays light output follows the ATP content of the culture.)

A further experiment concerns Lung_H1975. Kind of experiment: Cell proliferation assay (ATPlite), H1975. The following applies: Homo sapiens, NCI-H1975; TABLE C; 72 hours, 0.5% fetal bovine serum, ATP content; read-out: IC50 grading, Lung_H1975. The class given is cell-based. As for the experimental part: as §1, §2, §3
A further experiment deals with Lung_H2122. Kind of experiment: Cell proliferation assay (ATPlite), H2122. The following applies: Homo sapiens, NCI-H2122; TABLE C; 72 hours, 0.5% fetal bovine serum, ATP content; read-out: IC50 grading, Lung_H2122. The class given is cell-based. As for the experimental part:
as §1, §2, §3

The subject of the next experiment is Lung_H358. As to the kind of experiment: Cell proliferation assay (ATPlite), H358. The class given is cell-based. The following applies: Homo sapiens, NCI-H358; TABLE C; 72 hours, 0.5% fetal bovine serum, ATP content; read-out: IC50 grading, Lung_H358. As to the method:
as §1, §2, §3

A further experiment has as its system Lung_H460. Kind of experiment: Cell proliferation assay (ATPlite), H460. The class given is cell-based. The following applies: Homo sapiens, NCI-H460; TABLE C; 72 hours, 0.5% fetal bovine serum, ATP content; read-out: IC50 grading, Lung_H460. As to the method: as §1, §2, §3
A further experiment has as its system Pancreas_BxPC3. Kind of experiment: Cell proliferation assay (ATPlite), BxPC3. It counts as cell-based. The following applies: Homo sapiens, BXPC-3; TABLE C; 72 hours, 0.5% fetal bovine serum, ATP content; read-out: IC50 grading, Pancreas_BxPC3. As to the method:
as §1, §2, §3

The subject of a further experiment is Pancreas_Capan1. As to the kind of experiment: Cell proliferation assay (ATPlite), Capan1. The class given is cell-based. The following applies: Homo sapiens, CAPAN-1; TABLE C; 72 hours, 0.5% fetal bovine serum, ATP content; read-out: IC50 grading, Pancreas_Capan1. As to the method:
as §1, §2, §3

Experiment [1] concerns Prostate_PC3 (PC-3, prostate adenocarcinoma). Kind of experiment: Cell proliferation assay (ATPlite), PC3. It counts as cell-based. As for the experimental part: as §1, §2
(§4) Cancer cell lines were plated at 5,000 to 10,000 per well in 96-well flatted bottomed plates with various concentration of compounds. […] Growth inhibition was accessed by adenosine triphosphate (ATP) content assay using Perkin Elmer ATPlite kit. ATPlite is an ATP monitoring system based on firefly luciferase. Briefly, 25 μl of mammalian cell lysis solution was added to 50 μl of phenol red-free culture medium per well to lyse the cells and stabilize the ATP. 25 μl of substrate solution was then added to the well and subsequently the luminescence was measured.

The subject of experiment [2] is Colon_HCT116 (HCT116, colon cancer). Kind of experiment: Cell proliferation assay (ATPlite), HCT116. It counts as cell-based. The following applies: Homo sapiens, HCT-116. As for the experimental part:
as §1, §2, §4

Another experiment has as its system Pancreas_CFPAC. As to the kind of experiment: Cell proliferation assay (ATPlite), CFPAC. The following applies: TABLE C; 72 hours, 0.5% fetal bovine serum, ATP content; read-out: IC50 grading, Pancreas_CFPAC. It counts as cell-based. As to the method:
as §1, §2, §3

The test system of the next experiment is Pancreas_HPAC. Kind of experiment: Cell proliferation assay (ATPlite), HPAC. The class given is cell-based. The following applies: Homo sapiens, TABLE C, 72 hours, 0.5% fetal bovine serum, ATP content, read-out: IC50 grading, Pancreas_HPAC. As to the method: as §1, §2, §3
The subject of the next experiment is Pancreas_MiaPaCa2. As to the kind of experiment: Cell proliferation assay (ATPlite), MiaPaCa2. The class given is cell-based. The following applies: Homo sapiens, MIA PaCa-2; TABLE C; 72 hours, 0.5% fetal bovine serum, ATP content; read-out: IC50 grading, Pancreas_MiaPaCa2. As to the method:
as §1, §2, §3

The next experiment concerns Pancreas_PANC1. As to the kind of experiment: Cell proliferation assay (ATPlite), PANC1. The class given is cell-based. The following applies: Homo sapiens, PANC-1; TABLE C; 72 hours, 0.5% fetal bovine serum, ATP content; read-out: IC50 grading, Pancreas_PANC1. As for the experimental part:
as §1, §2, §3

Another experiment has as its system Lung_HCC827. As to the kind of experiment: Cell proliferation assay (ATPlite), HCC827. The class given is cell-based. The following applies: Homo sapiens, TABLE C, 72 hours, 0.5% fetal bovine serum, ATP content, read-out: IC50 grading, Lung_HCC827. As to the method: as §1, §2, §3
Experiment [3] deals with Breast_MCF7 (MCF-7, breast adenocarcinoma). As to the kind of experiment: Cell proliferation assay (ATPlite), MCF7. The class given is cell-based. The following applies: Homo sapiens, TABLE D, Breast adenocarcinoma, read-out: IC50 grading, MCF-7. As to the method: as §1, §2, §4
Experiment [4] deals with Breast_MDAMB468 (MDA-MB-468, breast adenocarcinoma). As to the kind of experiment: Cell proliferation assay (ATPlite), MDA-MB-468. It counts as cell-based. The following applies: Homo sapiens, TABLE D, Breast adenocarcinoma, read-out: IC50 grading, MDA-MB-468. As to the method:
as §1, §2, §4

Experiment [5] has as its system Breast_SkBr3 (SKBr3, breast carcinoma). As to the kind of experiment: Cell proliferation assay (ATPlite), SkBr3. The following applies: Homo sapiens, SK-BR-3; TABLE D; Breast carcinoma; read-out: IC50 grading, SKBr3. The class given is cell-based. As to the method:
as §1, §2, §4

Experiment [6] deals with Epidermoid_A431 (A431, epidermoid carcinoma). Kind of experiment: Cell proliferation assay (ATPlite), A431. The following applies: Homo sapiens, A-431; TABLE D; Epidermoid carcinoma; read-out: IC50 grading, A431. It counts as cell-based. As for the experimental part:
as §1, §2, §4

Experiment [7] has as its system Prostate_22RV1 (22RV1, prostate carcinoma). As to the kind of experiment: Cell proliferation assay (ATPlite), 22RV1. The class given is cell-based. The following applies: Homo sapiens, TABLE D, Prostate carcinoma, read-out: IC50 grading, 22RV1. As for the experimental part: as §1, §2, §4
The test system of experiment [8] is MDA-MB-231 (breast adenocarcinoma). As to the kind of experiment: Cell proliferation assay (ATPlite), MDA-MB-231. The following applies: Homo sapiens, TABLE D, read-out: IC50 grading, MDA-MB-231. It counts as cell-based. As to the method: as §1, §2, §4
The test system of another experiment is Caki-1 (renal carcinoma). Kind of experiment: Cell proliferation assay (ATPlite), Caki-1. The class given is cell-based. The following applies: Homo sapiens, TABLE D, read-out: IC50 grading, Caki-1. As to the method: as §1, §2, §4
For experiment [9], the system named is HCT-116 (colon) and SKBr3 (breast) cancer cells. As to the kind of experiment: Induction of apoptosis, Caspase 3&7 activity (FIG. 4). The class given is cell-based. The following applies: concentration <20 μM.
Another experiment has as its system A549 NSCLC xenograft. As to the kind of experiment: A549 NSCLC Xenograft Model. It counts as in vivo. The following applies: FIG. 11A, 11B.
The subject of experiment [10] is ER mRNA expression in human ER-negative breast cancer cell lines. The following applies: Yang et al. Cancer Res., 2001; cited from earlier work.
Setting [11] is: TABLE C, 72 hours, 0.5% fetal bovine serum, ATP content, read-out: IC50 grading, Colon_HCT116.

Sequence of C-Raf (P04049 whole entry Y340D/Y341D): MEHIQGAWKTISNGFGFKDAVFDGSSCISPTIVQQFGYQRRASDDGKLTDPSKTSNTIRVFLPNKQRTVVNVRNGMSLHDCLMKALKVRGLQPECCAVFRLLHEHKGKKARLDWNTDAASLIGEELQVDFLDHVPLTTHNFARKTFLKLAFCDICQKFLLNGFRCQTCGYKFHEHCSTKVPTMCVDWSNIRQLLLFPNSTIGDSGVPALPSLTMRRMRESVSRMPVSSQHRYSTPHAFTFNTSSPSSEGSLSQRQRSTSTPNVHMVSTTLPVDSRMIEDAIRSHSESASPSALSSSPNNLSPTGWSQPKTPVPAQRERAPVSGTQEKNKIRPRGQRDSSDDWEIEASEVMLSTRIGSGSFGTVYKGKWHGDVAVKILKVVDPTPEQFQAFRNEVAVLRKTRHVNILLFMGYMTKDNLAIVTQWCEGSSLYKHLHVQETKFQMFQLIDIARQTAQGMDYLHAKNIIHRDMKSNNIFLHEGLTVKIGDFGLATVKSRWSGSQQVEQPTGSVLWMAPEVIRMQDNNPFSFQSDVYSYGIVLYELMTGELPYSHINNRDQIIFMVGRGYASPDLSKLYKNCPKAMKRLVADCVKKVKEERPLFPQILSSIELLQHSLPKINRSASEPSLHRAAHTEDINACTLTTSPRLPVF

In the case of `O=C(CCCCCNC(=O)c1cc(Oc2ccc(NC(=O)Nc3ccc(Cl)c(C(F)(F)F)c3)cc2)ccn1)NO` [Compound 5], at C-Raf, the IC50 lay in the range of 1000 to 10000 nM.
For the molecule `COc1cc2ncnc(Nc3ccc(F)c(Cl)c3)c2cc1OCCCCCCC(=O)NO` [Compound 6], the IC50 in the experiment on Lung_H1703, with Lung_H1975, in the experiment on Lung_H2122, in the experiment on Lung_H358, in the experiment with Lung_H460 and with Pancreas_BxPC3 was 100 to 1000 nM each time. The IC50 fell in the range of 1000 to 10000 nM with Pancreas_Capan1 and 100 to 1000 nM in [1] (TABLE C, 72 hours, 0.5% fetal bovine serum, ATP content, read-out: IC50 grading, Prostate_PC3).
`O=C(CCCCCCC(=O)Nc1cc(Oc2ccc(NC(=O)Nc3ccc(Cl)c(C(F)(F)F)c3)cc2)ccn1)NO` [Compound 12]: at C-Raf, the IC50 was less than 100 nM.
`O=C(CCCCCCOc1ccc2ncnc(Nc3ccc(F)c(Cl)c3)c2c1)NO` [Compound 18]: the IC50 in experiment [2] (setting [11]) was 100 to 1000 nM; with Pancreas_BxPC3 it was 100 to 1000 nM; in the experiment with Pancreas_CFPAC, 100 to 1000 nM; in the experiment on Pancreas_HPAC, 1000 to 10000 nM; with Pancreas_MiaPaCa2 it was 100 to 1000 nM; with Pancreas_PANC1, 100 to 1000 nM.
Take `C#Cc1cccc(Nc2ncnc3cc(OC)c(NC(=O)CCCCCCC(=O)NO)cc23)c1` [Compound 44]: the half-inhibitory concentration (IC50) with Lung_H1703 lay in the range of 1000 to 10000 nM; with Lung_H1975, 1000 to 10000 nM; with Lung_H2122 it was 1000 to 10000 nM; in the experiment on Lung_H358, 1000 to 10000 nM; with Lung_H460 it was 1000 to 10000 nM; with Lung_HCC827 it was 100 to 1000 nM. Further, the 50% inhibitory concentration (IC50) in the experiment on Pancreas_BxPC3 and in the experiment with Pancreas_Capan1 was 1000 to 10000 nM throughout.
As to `COc1cc2ncnc(NCc3ccccc3)c2cc1OCCCCCCC(=O)NO` [Compound 85, 7-(4-(Benzylamino)-7-methoxyquinazolin-6-yloxy)-N-hydroxyheptanamide], the IC50 is 100 to 1000 nM in [2] (setting [11]); 100 to 1000 nM in the experiment with Pancreas_BxPC3; 1000 to 10000 nM in the experiment on Pancreas_CFPAC; 1000 to 10000 nM with Pancreas_HPAC; 1000 to 10000 nM with Pancreas_MiaPaCa2; 1000 to 10000 nM in the experiment on Pancreas_PANC1.
Turning to `C#Cc1cccc(Nc2ncnc3cc(OCCOC)c(OCCOC)cc23)c1` [Erlotinib, reference compound], the IC50 in [3] is no less than 5000 nM; in experiment [4] it was 500 to 5000 nM; in experiment [5], no less than 5000 nM; in experiment [2] (TABLE D, Colon cancer, read-out: IC50 grading, HCT116), no less than 5000 nM; in [6], 500 to 5000 nM; in experiment [7], 50 to 500 nM. The concentration for half-maximal inhibition (IC50) in experiment [1] (TABLE D, Prostate adenocarcinoma, read-out: IC50 grading, PC-3) is no less than 5000 nM; in experiment [8], no less than 5000 nM; in the experiment with Caki-1 (renal carcinoma) it was 50 to 500 nM. Further, the “induction of apoptosis (Caspase 3&7 activity)” value in experiment [9] was “inactive”. For the same molecule, the “effect on tumor growth / tumor size” value in the experiment on A549 NSCLC xenograft is listed as “did not significantly affect tumor size”.
As to `CC(/C=C/C(=O)NO)=C\[C@@H](C)C(=O)c1ccc(N(C)C)cc1` [TSA, trichostatin A], in experiment [10], the “fold increase in ER mRNA expression” value is listed as 5 fold.
